US20130072505A1, “6,9-Disubstituted Purine Derivatives and Their Use for Treating Skin” (priority 2006, published 2013)

Legend:
breast carcinoma MCF-7 = assay: in vitro cytotoxic activity, Calcein AM microtiter assay; format: cell-based; details: Homo sapiens, MCF7; 72 hours; highest concentration 166.7 μM
Experimental: (§1) In vitro cytotoxic activity of several of the 6,9-disubstituted purine derivatives of this invention was determined using a microtiter assay with Calcein AM and a panel of cell lines of different histogenetic and species origin; kinetin was also examined as a control. Because only metabolically active cells cleave Calcein AM (tetraacetoxymethyl ester of calcein), the intracellular concentration of calcein corresponds to the number of vital cells in the culture.
(§2) The following cell lines were used: human osteosarcoma (HOS); breast carcinoma MCF-7; human myeloid leukemia K-562; and mouse fibroblasts NIH3T3. The cells were maintained in Nunc/Corning 80 cm^2 plastic tissue culture flasks and cultured in cell culture medium (DMEM with 5 g/l glucose, 2 mM glutamine, 100 U/ml penicillin, 100 μg/ml streptomycin, 10% fetal calf serum, and sodium bicarbonate).
(§3) The cell suspensions were prepared and diluted according to the particular cell type and the expected target cell density (2.500-30.000 cells per well based on cell growth characteristics) were added by pipette (80 μl) into 96/well microtiter plates. Inoculates were allowed a pre-incubation period of 24 hours at 37° C. and 5% CO2 for stabilization. Four-fold dilutions of the intended test concentration were added at time zero in 20 μl aliquots to the microtiter plate wells. The test compounds were generally evaluated at six 4-fold dilutions. The highest well concentration used in the present study was 166.7 μM. All samples were examined in triplicates. Incubations of cells with the tested compounds was for 72 hours at 37° C., in 5% CO2 atmosphere and 100% humidity. At the end of the incubation period, Calcein AM was added to a final concentration of 1 μg/ml incubated for 1 hour. Fluorescence intensity (FI) was measured with a Labsystem FIA Reader Fluoroscan Ascent (UK). The cell survival (GI50) was calculated using the following equation: GI50=([…])/(mean FIcontrol well−mean FIblank)×100%. The GI50 value, the drug concentration lethal to 50% of the cells, was calculated from the obtained dose response curves.

[1] = system: human myeloid leukemia K-562; assay: as above; format: cell-based; details: K562, 72 hours, highest concentration 166.7 μM
Experimental: as §1, §2, §3

human osteosarcoma (HOS) = assay: as above; format: cell-based; details: 72 hours, highest concentration 166.7 μM
Experimental: as §1, §2, §3

mouse fibroblasts NIH3T3 = assay: as above; format: cell-based; details: NIH3T3, 72 hours, highest concentration 166.7 μM, read-out: GI50 NIH-3T3
Experimental: as §1, §2, §3

human subjects = assay: Human Repeated Insult Patch Test; format: in vivo; details: test gel about 0.1 percent
Experimental: Test gel (about 0.2 ml) containing about 0.1 percent 6-furfurylamino-9-(2-tetrahydropyranyl)purine was placed onto a 2 cm square occlusion patch was placed on each subjects back and remained for 24 hours. This procedure was repeated every Monday, Wednesday, and Friday until nine (9) applications had been made on the same area (induction phase). The area was examined before each new application. About 10-14 days after the ninth patch had been removed, a challenge patch (challenge phase) on a new area of the back and then examined 24 and 72 hours thereafter for reactivity. Skin responses were based on a six-point scale (0=no evidence of effect; +=barely perceptible; 1=mild; 2=moderate; 3=marked; and 4=severe).
Fifty-two (52) subjects completed the induction and challenge phases (total of 10 applications per subject).

[2] = system: Female SKH-1 hairless mice; assay: topical skin anti-aging treatment, hairless mouse model; format: in vivo; details: 3 weeks
Source text: The safety and efficacy of the 6,9-disubstituted purine derivatives of this invention as topical skin anti-aging treatments were examined using the hairless mouse model (a well established model for studying the treatments of photoaging). Female SKH-1 hairless mice (5 weeks old, 20-25 grams, Charles River Laboratories, Wilmington, Mass.) were individually housed in filter-top cages, and acclimated for 5-7 days after delivery. […] Water and mouse chow are provided ad libitum. The experimental groups (6 mice per group) included the following treatments: (1) Untreated control; (2) Vehicle control (MillCreek Lotion); […] The various treatments were applied daily (Monday-Friday) for 3 weeks to the dorsal skin (about 2 cm×2 cm) of the hairless mice at a dosage rate of about 20 mg. At baseline (prior to the 1st treatment), and weekly, the dorsal skin was measured for transepidermal water loss (TEWL), skin moisture content, and skin elasticity. […] This instrument was equipped with dual probes which are placed on the skin surface and a quantitative measurement taken of the respective parameters and the measurements recorded on an integrated computer. […] The slides were weakly counter stained in Mayer's hematoxylin and scored under a light microscope for the number of BrdU-positive cells per mm of epidermis for each section. […]

## c1coc(CNc2ncnc3c2ncn3C2CCCCO2)c1 (centres unmarked) [6-furfurylamino-9-(2-tetrahydropyranyl)purine]
Breast carcinoma MCF-7
  GI50: > 167 µM
[1]
  GI50: > 167 µM
Human osteosarcoma (HOS)
  GI50: > 167 µM
Mouse fibroblasts NIH3T3
  GI50: > 167 µM
Human subjects; challenge phase, at 24 hours, 52 subjects
  skin responses, six-point scale (0=no evidence of effect; +=barely perceptible; 1=mild; 2=moderate; 3=marked; 4=severe): only one subject had a barely perceptible rating (+)
Human subjects; induction and challenge phases
  induced allergic contact dermatitis or other irritation: No evidence of induced allergic contact dermatitis or other irritation
[2]; topical daily (Monday-Friday), Grade 0=no response to Grade 6=necrosis
  erythema (irritation) score: < 1 Grade
[2]; topical daily
  Skin Moisture Content (skin conductance): one of the highest increases in skin moisture
